Key:
[1] = target: T1, prostate-specific membrane antigen (PSMA) (Sus scrofa, UniProt O77564); test: radioligand competition with […]Lu-PSMA-617, autoradiography on pig salivary gland tissue
T1 construct: gene FOLH1; pig salivary gland tissue cryosections

[2] = target: T2, prostate-specific membrane antigen (PSMA) (Homo sapiens, UniProt Q04609); test: blocking of […]Lu-PSMA-617 binding with […] 2-PMPA, autoradiography
T2 construct: gene FOLH1

[3] = target: T1, prostate-specific membrane antigen (PSMA); test: single-concentration ([…]) blocking of […]Lu-PSMA-617 binding, autoradiography

T1 sequence (O77564 whole entry): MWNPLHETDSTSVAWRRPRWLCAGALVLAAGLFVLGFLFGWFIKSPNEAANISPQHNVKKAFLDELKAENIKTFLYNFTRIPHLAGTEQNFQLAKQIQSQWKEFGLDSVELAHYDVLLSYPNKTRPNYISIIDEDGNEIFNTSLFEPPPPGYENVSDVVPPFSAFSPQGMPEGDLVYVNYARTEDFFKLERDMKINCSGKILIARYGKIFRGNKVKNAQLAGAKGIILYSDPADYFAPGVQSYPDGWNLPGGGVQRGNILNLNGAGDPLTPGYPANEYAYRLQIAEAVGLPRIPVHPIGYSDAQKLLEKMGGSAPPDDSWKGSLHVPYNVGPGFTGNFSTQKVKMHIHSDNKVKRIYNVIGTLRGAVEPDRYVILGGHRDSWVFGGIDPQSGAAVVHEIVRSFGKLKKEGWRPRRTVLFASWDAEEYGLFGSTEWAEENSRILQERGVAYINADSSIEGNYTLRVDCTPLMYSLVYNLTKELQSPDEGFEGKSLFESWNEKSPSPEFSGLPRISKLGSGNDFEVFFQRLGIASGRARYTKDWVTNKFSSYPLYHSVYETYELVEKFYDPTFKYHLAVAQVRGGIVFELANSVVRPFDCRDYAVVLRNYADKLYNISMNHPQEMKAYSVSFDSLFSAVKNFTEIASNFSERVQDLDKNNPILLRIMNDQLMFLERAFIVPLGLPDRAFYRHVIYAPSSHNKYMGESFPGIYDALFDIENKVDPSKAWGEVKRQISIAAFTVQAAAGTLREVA
T2 sequence (Q04609 whole entry): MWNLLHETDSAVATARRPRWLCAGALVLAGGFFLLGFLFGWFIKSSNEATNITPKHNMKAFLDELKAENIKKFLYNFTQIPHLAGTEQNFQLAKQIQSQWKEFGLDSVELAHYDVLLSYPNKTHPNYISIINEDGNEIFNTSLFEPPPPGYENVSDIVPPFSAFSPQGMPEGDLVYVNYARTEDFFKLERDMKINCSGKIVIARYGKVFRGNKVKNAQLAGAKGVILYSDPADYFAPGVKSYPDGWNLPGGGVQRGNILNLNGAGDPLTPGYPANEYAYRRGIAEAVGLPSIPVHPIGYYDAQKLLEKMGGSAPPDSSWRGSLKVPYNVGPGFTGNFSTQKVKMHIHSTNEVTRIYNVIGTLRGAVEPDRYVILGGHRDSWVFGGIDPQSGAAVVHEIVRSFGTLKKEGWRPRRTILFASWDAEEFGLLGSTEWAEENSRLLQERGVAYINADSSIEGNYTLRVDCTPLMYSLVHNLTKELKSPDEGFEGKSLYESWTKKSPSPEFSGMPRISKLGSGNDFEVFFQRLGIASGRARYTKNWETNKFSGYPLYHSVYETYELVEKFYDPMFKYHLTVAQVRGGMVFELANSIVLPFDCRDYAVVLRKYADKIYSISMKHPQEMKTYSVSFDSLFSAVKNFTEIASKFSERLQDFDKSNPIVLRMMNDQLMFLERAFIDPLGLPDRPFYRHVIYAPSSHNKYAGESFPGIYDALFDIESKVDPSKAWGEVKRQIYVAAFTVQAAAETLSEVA

Row | Structure (SMILES) | IC50 [1] | blocking of [177Lu]Lu-PSMA-617 binding with 80 μM 2-PMPA, autoradiography [2] | single-concentration (80 μM) blocking of [177Lu]Lu-PSMA-617 binding, autoradiogr [3]
1 | O=C(O)CC[C@H](NC(=O)N[C@@H](CCCCNC(=O)[C@H](Cc1ccc2ccccc2c1)NC(=O)[C@H]1CC[C@H](CNC(=O)CN2CCN(CC(=O)O)CCN(CC(=O)O)CCN(CC(=O)O)CC2)CC1)C(=O)O)C(=O)O [PSMA-617] | 6 ± 0.1 nM | – | –
2 | O=C(O)CCC(CP(=O)(O)O)C(=O)O (stereo not drawn) [2-PMPA, 2-Phosphonomethyl pentanedioic acid] | – | In contrast, LNCaP membrane pellets only showed a negligible non-specific bound fraction. | Additional blocking with 2-PMPA, a highly potent PSMA-inhibitor, resulted in a reduced uptake of radioligand in the glandular areas

Source: paper PMC6469177, “[^177Lu]Lu-PSMA-617 Salivary Gland Uptake Characterized by Quantitative In Vitro Autoradiography” (Pharmaceuticals, 2019)
